Laboratory results published in patent US20250243180A1, “TARGETED PROTEIN DEGRADATION” (Monte Rosa Therapeutics AG, priority 2023, published 2025).
Where two headings read alike, the source gives them in different places.

Assays:
[1] = target: CRBN-DDB1 (Homo sapiens (Human), UniProt Q96SW2); assay: Compound binding to CRBN by HTRF assay
In short: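 HTRF displacement of Cy5-thalidomide probe (100 nM) from His-tagged CRBN-DDB1 (2.5 nM) with anti-His terbium cryptate, in HEPES/NaCl/TCEP/EDTA/Tween20 buffer; 11-point 1:3 dilution series, 30 min at ambient temperature. Signal (665/620 nm) normalized to lenalidomide and DMSO controls; EC50 fitted, Ki by Cheng-Prusoff from geometric mean EC50.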

[2] = target: NEK7 (Homo sapiens (Human), UniProt Q8TDX7+Q96SW2); assay: NEK7 NanoBiT degradation assay in Cal51 NEK7 NanoBiT cell line; format: cell-based; settings: Cal51 NEK7 NanoBiT cells, 24 hours; for Dmax: CAL-51
NEK7, sequence (Q8TDX7 whole entry): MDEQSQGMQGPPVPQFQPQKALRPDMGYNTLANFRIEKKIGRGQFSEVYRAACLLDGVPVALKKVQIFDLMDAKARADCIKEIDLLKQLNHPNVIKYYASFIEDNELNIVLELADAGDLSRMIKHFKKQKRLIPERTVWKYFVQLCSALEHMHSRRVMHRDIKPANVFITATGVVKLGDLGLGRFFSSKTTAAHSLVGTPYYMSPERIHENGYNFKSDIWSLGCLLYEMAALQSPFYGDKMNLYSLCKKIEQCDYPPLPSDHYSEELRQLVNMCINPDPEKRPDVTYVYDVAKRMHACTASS
NEK7, sequence (Q96SW2 whole entry): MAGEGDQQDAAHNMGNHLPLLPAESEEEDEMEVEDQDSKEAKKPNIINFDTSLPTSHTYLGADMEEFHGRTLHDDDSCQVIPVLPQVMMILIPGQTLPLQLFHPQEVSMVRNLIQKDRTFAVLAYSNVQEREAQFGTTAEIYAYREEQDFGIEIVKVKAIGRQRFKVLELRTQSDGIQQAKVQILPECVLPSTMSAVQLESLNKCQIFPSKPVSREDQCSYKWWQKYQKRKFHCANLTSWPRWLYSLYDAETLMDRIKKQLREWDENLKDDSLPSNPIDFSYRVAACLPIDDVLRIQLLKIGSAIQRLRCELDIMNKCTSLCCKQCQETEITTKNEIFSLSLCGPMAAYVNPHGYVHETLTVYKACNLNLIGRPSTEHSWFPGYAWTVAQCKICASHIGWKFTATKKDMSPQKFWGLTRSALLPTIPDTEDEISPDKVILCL
NEK7, sequence (Q16531 2-1140 partner): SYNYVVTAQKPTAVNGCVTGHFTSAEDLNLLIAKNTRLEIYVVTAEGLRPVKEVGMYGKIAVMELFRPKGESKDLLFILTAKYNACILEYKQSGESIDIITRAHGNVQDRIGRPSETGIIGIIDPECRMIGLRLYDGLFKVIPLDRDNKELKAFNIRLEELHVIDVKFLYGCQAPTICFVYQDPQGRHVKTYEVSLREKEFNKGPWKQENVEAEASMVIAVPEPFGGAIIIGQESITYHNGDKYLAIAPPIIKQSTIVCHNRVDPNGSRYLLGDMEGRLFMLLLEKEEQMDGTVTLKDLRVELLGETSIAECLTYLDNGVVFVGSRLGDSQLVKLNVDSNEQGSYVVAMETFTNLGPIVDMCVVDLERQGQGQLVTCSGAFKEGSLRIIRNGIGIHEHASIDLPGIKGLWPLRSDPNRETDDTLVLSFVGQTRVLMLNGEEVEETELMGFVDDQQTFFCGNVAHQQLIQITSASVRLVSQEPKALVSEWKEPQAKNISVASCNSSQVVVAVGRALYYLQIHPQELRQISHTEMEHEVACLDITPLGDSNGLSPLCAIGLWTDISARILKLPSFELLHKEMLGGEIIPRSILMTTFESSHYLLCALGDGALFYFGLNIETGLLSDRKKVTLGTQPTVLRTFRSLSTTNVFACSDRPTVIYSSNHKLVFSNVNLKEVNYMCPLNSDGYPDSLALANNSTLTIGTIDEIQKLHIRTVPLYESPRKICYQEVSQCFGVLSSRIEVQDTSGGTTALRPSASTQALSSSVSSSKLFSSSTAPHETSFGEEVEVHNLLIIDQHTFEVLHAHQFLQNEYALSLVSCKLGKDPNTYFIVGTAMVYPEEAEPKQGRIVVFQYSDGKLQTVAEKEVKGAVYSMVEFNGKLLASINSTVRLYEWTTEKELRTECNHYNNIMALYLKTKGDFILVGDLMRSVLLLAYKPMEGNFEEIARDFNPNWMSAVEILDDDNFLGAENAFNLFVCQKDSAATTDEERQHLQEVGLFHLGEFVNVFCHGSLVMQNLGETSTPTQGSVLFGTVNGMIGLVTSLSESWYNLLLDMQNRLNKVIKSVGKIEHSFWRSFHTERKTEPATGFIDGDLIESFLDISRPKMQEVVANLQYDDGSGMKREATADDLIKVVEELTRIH
In short: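 Cal51 cells with CRISPR knock-in HiBiT-tagged endogenous NEK7 plus stable LgBiT, in live-cell Endurazine medium, seeded 16 h before dosing. Compounds at final 1 μM to 0.05 nM for 24 h at 37 °C, then luminescence read. Response normalized to plate controls and fitted with a 4-parameter logistic giving EC50.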

[3] = NEK7 degradation, read-out: NanoBiT Dmax
[4] = NEK7 degradation, read-out: NanoBiT DC50

CRBN-DDB1, sequence (Q96SW2 whole entry): as the sequence (Q96SW2 whole entry) above
CRBN-DDB1, sequence (Q16531 whole entry partner): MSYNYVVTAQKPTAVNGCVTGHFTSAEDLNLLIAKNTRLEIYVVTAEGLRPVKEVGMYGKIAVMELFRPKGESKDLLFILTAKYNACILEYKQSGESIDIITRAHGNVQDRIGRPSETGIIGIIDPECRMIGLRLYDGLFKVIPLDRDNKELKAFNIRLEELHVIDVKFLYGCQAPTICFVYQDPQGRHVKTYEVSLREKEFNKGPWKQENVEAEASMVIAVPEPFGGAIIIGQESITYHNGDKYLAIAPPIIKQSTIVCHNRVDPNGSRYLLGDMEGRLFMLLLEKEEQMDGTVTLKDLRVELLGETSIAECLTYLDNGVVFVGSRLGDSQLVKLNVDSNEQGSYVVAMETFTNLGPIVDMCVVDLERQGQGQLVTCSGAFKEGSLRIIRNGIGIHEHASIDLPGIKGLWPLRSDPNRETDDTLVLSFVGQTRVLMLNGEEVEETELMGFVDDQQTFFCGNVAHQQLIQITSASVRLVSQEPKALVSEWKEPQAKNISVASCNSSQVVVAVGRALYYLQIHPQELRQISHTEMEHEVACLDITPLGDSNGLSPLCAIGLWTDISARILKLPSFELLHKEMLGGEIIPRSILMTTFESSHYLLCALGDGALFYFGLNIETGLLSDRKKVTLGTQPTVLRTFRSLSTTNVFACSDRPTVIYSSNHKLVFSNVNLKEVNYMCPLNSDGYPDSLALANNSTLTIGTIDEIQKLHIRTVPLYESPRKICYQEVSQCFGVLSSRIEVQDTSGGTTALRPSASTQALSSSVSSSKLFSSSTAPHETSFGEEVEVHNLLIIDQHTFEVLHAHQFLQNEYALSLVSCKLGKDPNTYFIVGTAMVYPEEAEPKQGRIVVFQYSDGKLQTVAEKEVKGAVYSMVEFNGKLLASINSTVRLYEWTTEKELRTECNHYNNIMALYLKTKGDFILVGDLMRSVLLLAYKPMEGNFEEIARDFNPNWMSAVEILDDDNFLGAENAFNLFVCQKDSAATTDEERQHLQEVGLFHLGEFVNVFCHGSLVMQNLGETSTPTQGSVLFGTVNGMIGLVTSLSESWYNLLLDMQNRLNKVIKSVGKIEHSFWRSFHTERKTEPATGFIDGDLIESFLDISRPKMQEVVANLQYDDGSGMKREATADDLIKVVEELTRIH

| SMILES | EC50 [1] | EC50 ([1]; HTRF class, Cereblon binding) | Dmax ([2]; read-out: NEK7 NanoBiT Dmax) | Dmax [2, 3] | DC50 ([2]; read-out: NEK7 NanoBiT DC50) | DC50 [2, 4] |
| --- | --- | --- | --- | --- | --- | --- |
| CC(C)(C(=O)NCc1cc(Cl)c(C2CCC(=O)NC2=O)c(Cl)c1)c1ccc2[nH]ccc2c1 (stereo not drawn) [Compound 91] | 0.04 µM | ≤ 0.1 µM | 97% | > 75% | 0.0004 µM | ≤ 0.1 µM |
| CC(C)(C(=O)NCc1cc(Cl)c(C2CCC(=O)NC2=O)c(Cl)c1)c1ccnc(C#N)c1 (stereo not drawn) [Compound 92] | 0.18 µM | 0.1 to 1 µM | 71% | 50 to 75% | 0.065 µM | ≤ 0.1 µM |
| COc1cc(C(C)(C)C(=O)NCc2cc(Cl)c(C3CCC(=O)NC3=O)c(Cl)c2)ccn1 (stereo not drawn) [Compound 98] | 0.11 µM | 0.1 to 1 µM | 95% | > 75% | 0.003 µM | ≤ 0.1 µM |
| CC(C)(C(=O)NCc1cc(Cl)c(C2CCC(=O)NC2=O)c(Cl)c1)c1cccnc1 (stereo not drawn) [Compound 99] | 0.08 µM | ≤ 0.1 µM | 87% | > 75% | 0.008 µM | ≤ 0.1 µM |
| CC(C)(C(=O)NCc1ccc(C2CCC(=O)NC2=O)c(Cl)c1)c1ccccc1 (stereo not drawn) [Compound 103] | 0.18 µM | 0.1 to 1 µM | 89% | > 75% | 0.02 µM | ≤ 0.1 µM |
| CC(C)(C(=O)NCc1cc(F)c(C2CCC(=O)NC2=O)c(Cl)c1)c1ccncc1 (stereo not drawn) [Compound 106] | 0.24 µM | 0.1 to 1 µM | 80% | > 75% | 0.026 µM | ≤ 0.1 µM |
| Cc1cc(CNC(=O)C(C)(C)c2ccncc2)cc(Cl)c1C1CCC(=O)NC1=O (stereo not drawn) [Compound 107, N-(3-chloro-4-(2,6-dioxopiperidin-3-yl)-5-methylbenzyl)-2-methyl-2-(pyridin-4-yl)propanamide] | 0.44 µM | 0.1 to 1 µM | 82% | > 75% | 0.028 µM | ≤ 0.1 µM |
| CC(C)(C(=O)NCc1ccc(C2CCC(=O)NC2=O)c(Cl)c1)c1ccncc1 (stereo not drawn) [Compound 109] | 0.48 µM | 0.1 to 1 µM | 69% | 50 to 75% | 0.25 µM | 0.1 to 1 µM |
| CC(C)(C(=O)NCc1cc(Cl)c(C2CCC(=O)NC2=O)c(Cl)c1)c1ccno1 (stereo not drawn) [Compound 120, N-(3,5-dichloro-4-(2,6-dioxopiperidin-3-yl)benzyl)-2-(isoxazol-5-yl)-2-methylpropanamide] | 0.1 µM | ≤ 0.1 µM | 68% | 50 to 75% | 0.061 µM | ≤ 0.1 µM |
| CC(C)(C(=O)NCc1cc(Cl)c(C2CCC(=O)NC2=O)c(Cl)c1)c1ccon1 (stereo not drawn) [Compound 121] | 0.29 µM | 0.1 to 1 µM | 80% | > 75% | 0.03 µM | ≤ 0.1 µM |
| CC(C)(C(=O)NCc1cc(Cl)c(C2CCC(=O)NC2=O)c(Cl)c1)c1cnco1 (stereo not drawn) [Compound 122] | 0.23 µM | 0.1 to 1 µM | 73% | 50 to 75% | 0.056 µM | ≤ 0.1 µM |
| Cn1cncc1C(C)(C)C(=O)NCc1cc(Cl)c(C2CCC(=O)NC2=O)c(Cl)c1 (stereo not drawn) [Compound 123] | 0.61 µM | 0.1 to 1 µM | 70% | 50 to 75% | 0.1 µM | 0.1 to 1 µM |
| CC(C)(C(=O)NCc1cc(Cl)c(C2CCC(=O)NC2=O)c(Cl)c1)c1ncco1 (stereo not drawn) [Compound 124] | 0.14 µM | 0.1 to 1 µM | 73% | 50 to 75% | 0.078 µM | ≤ 0.1 µM |
| CC(C)(C(=O)NCc1cc(Cl)c(C2CCC(=O)NC2=O)c(Cl)c1)c1ccns1 (stereo not drawn) [Compound 125] | 0.07 µM | ≤ 0.1 µM | 71% | 50 to 75% | 0.054 µM | ≤ 0.1 µM |
| CC(C)(C(=O)NCc1cc(Cl)c(C2CCC(=O)NC2=O)c(Cl)c1)c1ccsc1 (stereo not drawn) [Compound 126, N-(3,5-dichloro-4-(2,6-dioxopiperidin-3-yl)benzyl)-2-methyl-2-(thiophen-3-yl)propanamide] | 0.05 µM | ≤ 0.1 µM | 94% | > 75% | 0.003 µM | ≤ 0.1 µM |
| O=C1CCC(c2c(Cl)cc(CNC(=O)C3(c4ccccc4)CCOC3)cc2Cl)C(=O)N1 (stereo not drawn) [Compound 127, N-(3,5-dichloro-4-(2,6-dioxopiperidin-3-yl)benzyl)-3-phenyltetrahydrofuran-3-carboxamide] | 0.04 µM | ≤ 0.1 µM | 90% | > 75% | 0.005 µM | ≤ 0.1 µM |
| O=C1CCC(c2c(Cl)cc(CNC(=O)C3(c4ccccc4)CCOCC3)cc2Cl)C(=O)N1 (stereo not drawn) [Compound 128, N-(3,5-dichloro-4-(2,6-dioxopiperidin-3-yl)benzyl)-4-phenyltetrahydro-2H-pyran-4-carboxamide] | 0.04 µM | ≤ 0.1 µM | 95% | > 75% | 0.008 µM | ≤ 0.1 µM |
| O=C1CCC(c2c(Cl)cc(CNC(=O)C3(c4ccccc4)COC3)cc2Cl)C(=O)N1 (stereo not drawn) [Compound 129] | 0.09 µM | ≤ 0.1 µM | 90% | > 75% | 0.022 µM | ≤ 0.1 µM |
| O=C1CCC(c2c(Cl)cc(CNC(=O)C3(c4ccccc4)CCC3)cc2Cl)C(=O)N1 (stereo not drawn) [Compound 130, N-(3,5-dichloro-4-(2,6-dioxopiperidin-3-yl)benzyl)-1-phenylcyclobutane-1-carboxamide] | 0.04 µM | ≤ 0.1 µM | 96% | > 75% | 0.002 µM | ≤ 0.1 µM |
| O=C1CCC(c2c(Cl)cc(CNC(=O)C3(c4ccc5cn[nH]c5c4)CCOCC3)cc2Cl)C(=O)N1 (stereo not drawn) [Compound 131, N-(3,5-dichloro-4-(2,6-dioxopiperidin-3-yl)benzyl)-4-(1H-indazol-6-yl)tetrahydro-2H-pyran-4-carboxamide] | 0.02 µM | ≤ 0.1 µM | 96% | > 75% | 0.001 µM | ≤ 0.1 µM |
| O=C1CCC(c2c(Cl)cc(CNC(=O)C3(c4ccc5[nH]ncc5c4)CCOCC3)cc2Cl)C(=O)N1 (stereo not drawn) [Compound 132, N-(3,5-dichloro-4-(2,6-dioxopiperidin-3-yl)benzyl)-4-(1H-indazol-5-yl)tetrahydro-2H-pyran-4-carboxamide] | 0.05 µM | ≤ 0.1 µM | 92% | > 75% | 0.005 µM | ≤ 0.1 µM |
| Cn1ncc2ccc(C3(C(=O)NCc4cc(Cl)c(C5CCC(=O)NC5=O)c(Cl)c4)CCOCC3)cc21 (stereo not drawn) [Compound 133] | 0.03 µM | ≤ 0.1 µM | 94% | > 75% | 0.002 µM | ≤ 0.1 µM |
| Cn1ncc2ccc(C3(C(=O)NCc4cc(Cl)c(C5CCC(=O)NC5=O)c(Cl)c4)CC(=O)C3)cc21 (stereo not drawn) [Compound 134, N-(3,5-dichloro-4-(2,6-dioxopiperidin-3-yl)benzyl)-1-(1-methyl-1H-indazol-6-yl)-3-oxocyclobutane-1-carboxamide] | 0.07 µM | ≤ 0.1 µM | 93% | > 75% | 0.002 µM | ≤ 0.1 µM |
